Among the data in the NIST ThermoML archive (doi:10.1016/j.jct.2006.08.007) are mass density and speed of sound values, retold here.

The data set can be described thus: xn = mol fraction of the nth substance listed. To be noted: 279.15 K, 101 kPa, Liquid.

Numbers after ± are expanded uncertainties.

Regarding `C1COCCO1` [1,4-dioxane] + O, the mass density was 1008.9 ± 3.2 kg/m3 (x1 = 0.018); 1021 ± 3.3 kg/m3 (x1 = 0.048); 1031.1 ± 3.4 kg/m3 (x1 = 0.077); 1035.1 ± 3.5 kg/m3 (x1 = 0.096); 1051.2 ± 4.1 kg/m3 (x1 = 0.24); 1052.8 ± 4.9 kg/m3 (x1 = 0.387). Moreover, for the setting “x1 = 0.595”, the mass density stood at 1051.7 ± 6.3 kg/m3. For the same molecule, the speed of sound (x1 = 0.018) stood at 1490 ± 12 m/s; the speed of sound (x1 = 0.048) came out at 1544.4 ± 13 m/s; the speed of sound (x1 = 0.077) turned out to be 1580 ± 13 m/s; the speed of sound (x1 = 0.096) stood at 1590.4 ± 13 m/s; the speed of sound (x1 = 0.24) came to 1587.6 ± 13 m/s; the speed of sound (x1 = 0.387) worked out at 1531.6 ± 13 m/s. For the same molecule, the speed of sound (x1 = 0.595) was 1479.4 ± 13 m/s.

As to `CC#N` [acetonitrile] + O, the mass density reads like this: (x1 = 0.053) 986.6 ± 3.2 kg/m3; (x1 = 0.091) 974.3 ± 3.2 kg/m3; (x1 = 0.146) 955.5 ± 3.3 kg/m3; (x1 = 0.187) 941.9 ± 3.3 kg/m3; (x1 = 0.296) 909.5 ± 3.6 kg/m3; (x1 = 0.376) 888.4 ± 3.8 kg/m3. Also, the mass density reads like this: (x1 = 0.518) 859 ± 4.2 kg/m3; (x1 = 0.692) 831.5 ± 4.9 kg/m3; (x1 = 0.889) 807.2 ± 5.9 kg/m3. The speed of sound worked out at 1540 ± 13 m/s (x1 = 0.053); 1549.6 ± 13 m/s (x1 = 0.091); 1511.8 ± 13 m/s (x1 = 0.146); 1476.2 ± 12 m/s (x1 = 0.187); 1451 ± 12 m/s (x1 = 0.296); 1425 ± 12 m/s (x1 = 0.376). The speed of sound by setting is: (x1 = 0.518) 1387.2 ± 12 m/s; (x1 = 0.692) 1352 ± 12 m/s; (x1 = 0.889) 1321 ± 12 m/s.

Take `CN(C)C=O` [dimethylformamide] + O: the mass density by setting is: (x1 = 0.023) 1000.9 ± 3.2 kg/m3; (x1 = 0.0485) 1002.9 ± 3.2 kg/m3; (x1 = 0.0714) 1005.2 ± 3.3 kg/m3; (x1 = 0.0972) 1007.3 ± 3.4 kg/m3; (x1 = 0.2457) 1009.7 ± 3.9 kg/m3; (x1 = 0.3865) 1002.2 ± 4.5 kg/m3. In addition, the mass density is, setting by setting: (x1 = 0.5924) 986.6 ± 5.7 kg/m3; (x1 = 0.844) 970 ± 7.6 kg/m3. The speed of sound (x1 = 0.023) amounted to 1511.6 ± 13 m/s; the speed of sound (x1 = 0.0485) amounted to 1578.6 ± 13 m/s; the speed of sound (x1 = 0.0714) came out at 1625 ± 13 m/s; the speed of sound (x1 = 0.0972) worked out at 1664.6 ± 14 m/s; the speed of sound (x1 = 0.2457) worked out at 1748 ± 14 m/s; the speed of sound (x1 = 0.3865) is given as 1714.6 ± 14 m/s. Moreover, the speed of sound came to 1646 ± 14 m/s (x1 = 0.5924) and 1564 ± 14 m/s (x1 = 0.844).

As for `C1CCOC1` [tetrahydrofuran] + O, the mass density is recorded as 996.6 ± 5.9 kg/m3 (x1 = 0.046); 994.4 ± 5.9 kg/m3 (x1 = 0.086); 979 ± 6.2 kg/m3 (x1 = 0.19); 970.5 ± 6.7 kg/m3 (x1 = 0.33); 934 ± 7.4 kg/m3 (x1 = 0.54); 919.2 ± 8.6 kg/m3 (x1 = 0.74). The speed of sound is 1571.5 ± 13 m/s (x1 = 0.046); 1610.7 ± 13 m/s (x1 = 0.086); 1554 ± 13 m/s (x1 = 0.19); 1474.2 ± 12 m/s (x1 = 0.33); 1420.7 ± 12 m/s (x1 = 0.54); 1396.7 ± 12 m/s (x1 = 0.74).

Regarding `O` [water] + C1CCOC1, where the note is “x2 = 0”, the mass density worked out at 999.9 ± 5.8 kg/m3 and the speed of sound was 1433 ± 12 m/s.

Take `O` [water] + C1COCCO1: under “x2 = 0”, the mass density amounted to 999.9 ± 3.1 kg/m3 and the speed of sound is 1430.4 ± 12 m/s.

Consider `O` [water] + CC#N, for which, under “x2 = 0”, the mass density was 999.9 ± 3.1 kg/m3 and the speed of sound turned out to be 1430.4 ± 12 m/s.

For the molecule `O` [water] + CN(C)C=O, under “x2 = 0”, the mass density is recorded as 999.9 ± 3.1 kg/m3 and the speed of sound turned out to be 1430.4 ± 12 m/s.

The mass density is the mass of a sample divided by its volume. As a reminder, the speed of sound is the propagation velocity of pressure waves in the medium.
